Our source for the melting point values is a melting point compilation (Tetko et al.; mined from patent text by program, amines drawn as free bases though some values may be those of a salt).

Some results are limits rather than exact numbers.

In turn, `CC(=O)N=C(OC(C)=O)N1CCSC1c1ccccc1OCCN1CCN(c2ccccc2)CC1` (centres undefined) yielded a melting point of 120 to 124 °C.

Compound `COc1ccc2sc(C34CC5CC(CC(C5)C3)C4)cc(=O)c2c1` gave a melting point of 140 °C. With `O=c1[nH]c2ccc3ccccc3c2n(CCc2ccccc2)c1=O`, the melting point was 268 °C. Under `COc1ccc(C2CCN(C(N)=O)CC2)cc1OC1CCCC1` stands 149 to 150 °C; under `Cc1ccc(C(=O)c2ccccc2Cl)n1N`, 84 to 85 °C; under `CNC(=O)NCCCn1cc(Cn2ccnc2)c2ccccc21`, 123 to 124 °C.

For the compound `NC(=O)C1CCc2c(C(=O)c3cccs3)cccc21` (centres undefined), the melting point was in the range of 164 to 166 °C. `O=[N+]([O-])c1ccccc1NC1CCCCC1`: the melting point fell in the range of 105 to 107 °C. In the case of `CCOc1cccc(Cn2ncc3c(N4CCN(C(=O)OC(C)(C)C)CC4)ncnc32)n1` it was 130 to 132 °C; in that of `O=C(O)CCC(=O)NCC(=O)N1c2ccccc2N(Cc2ccccc2)C(=O)[C@H]2CCC[C@H]21` (relative stereo), 148 to 151 °C. In the case of `O=C(O)CCCNc1ccnn1-c1c(Cl)cc(C(F)(F)F)cc1Cl` it was 160 to 162 °C; in that of `Cc1c(Cl)cc(C(C)(C)C)c(O)c1-c1nc2cc(S(=O)(=O)C(F)(F)F)ccc2[nH]1`, 174 to 176 °C; in that of `CN1CCC(=C2c3ccsc3C(O)Cn3ccnc32)CC1` (centres undefined), 230 °C.

Turning to `CC(=O)ON1C(C)(C)CC2(CC1(C)C)OCC(C)(C)CO2`, the melting point was 109 to 111 °C. For `Cn1c(CON2C(=O)c3ccccc3C2=O)ncc(OCc2ccccc2)c1=O`, the melting point amounted to 170 °C. In the case of `CC1(C)CCC(C)(C)c2cc(-c3nnc(-c4ccc(C(N)=O)cc4)o3)ccc21` it was 272 to 274 °C; in that of `COc1ccc(C(Cc2cnccn2)c2ccccc2)cc1OC1CCCC1` (centres undefined), 71.5 to 72 °C. Under `COc1cc(Nc2c(C#N)cnc3cc(/C=C/CCN4CCOCC4)ccc23)c(Cl)cc1Cl` stands 88 to 89 °C; under `COC(=O)c1cc(F)c(C(F)(F)F)cc1[N+](=O)[O-]`, 66 to 68 °C; under `Nc1nc(-c2ccccc2)c(F)c(=O)[nH]1`, 276 to 278 °C.

In turn, `CS(=O)(=O)Nc1ccc(OC2SCC(O)C(O)C2O)cn1` (centres undefined) had a melting point of 201 to 204 °C. In the case of `CCOC(=O)C1CCN(Cc2nc(NCc3ccc(OC)c(Cl)c3)c3c4c(oc3n2)CCCC4)CC1` it was 152 °C; in that of `COC(=O)CCc1ccc(OCCc2nc(-c3ccccc3)oc2C)cc1`, 50.2 to 51.7 °C; in that of `CC(=O)SCCc1ncn(C(c2ccccc2)(c2ccccc2)c2ccccc2)n1`, 135 to 140 °C. Under `O=[N+]([O-])c1ccc(F)cc1CCN1CCN(c2nsc3ccccc23)CC1` stands 131 °C; under `CC(C)(C)OC(=O)N1CCC(O)(CS(=O)(=O)NC(c2ccccc2)c2ccccc2)CC1`, 121 to 123 °C; under `O=C(O)c1ccn(-c2ccc(F)cc2)c1`, 204 to 205 °C. In the case of `[N-]=[N+]=Nc1cccc2cccc(O)c12` it was 65 to 67 °C; in that of `CC(C)c1cccc(C(C)C)c1NC(=O)N(c1ccccc1)c1nnn(CCCCCCCC=O)n1`, 104 to 106 °C.

As for `O=C(OC(=O)c1ccccc1S(=O)(=O)O)c1ccccc1S(=O)(=O)O`, the melting point lay within 126 to 129 °C.

As for `CC(=O)C1CCC2C3CCC4CC(OC(=O)OCC(Cl)(Cl)Cl)CCC4(C)C3C(NC(=O)OCC(Cl)(Cl)Cl)CC12C` (centres undefined), the melting point was 174 to 176 °C. In turn, `O=c1cnc(-c2c(F)cccc2F)n[nH]1` had a melting point of 219 to 226 °C. Under `COc1cc(C(N)=S)c2c(c1OC)C(=O)CC2` stands 196 to 199 °C; under `COc1cc(C=O)ccn1`, 33 to 35 °C; under `CC(C)(C)NC(=O)c1cc(Cl)ccc1N`, 126 to 127 °C. Under `CCOC(=O)N1c2cc(OC)c(OC)cc2C(=O)C(=CN(C)C)C1C` (centres undefined) stands 130 to 131 °C; under `CN(C)c1c(Cl)cc(C(O)C#Cc2ccc(C(=O)O)c(O)c2)cc1C(C)(C)C` (centres undefined), 175 °C. Under `N#Cc1nn(-c2c(Cl)cc(C(F)(F)F)cc2Cl)c(N)c1-c1cccc(F)c1` stands 164 °C. In turn, `CC1(C)C2CC=C(c3ccc(C(=O)N4Cc5cccn5Cc5ccccc54)cc3)C1C2` (centres undefined) returned a melting point of 118 to 119 °C. In the case of `CC(=O)SCCC(=O)CCC(=O)O` it was 72 to 74 °C; in that of `NC(=S)Nc1cnccn1`, 234 to 235 °C. Under `Cc1c(-c2ccncc2)nc2n(c1=O)CCCN2CC(=O)c1ccccc1` stands 190 to 192 °C; under `CCn1c(=O)c2[nH]c(/C=C/c3ccc(F)c(Br)c3)nc2n(CC)c1=O`, more than 300 °C. In the case of `COC1(C[N+](=O)[O-])OC(=O)c2cc(C)c(C)cc21` (centres undefined) it was 147 to 150 °C; in that of `O=C1N[C@H](C(=O)NCCO[N+](=O)[O-])[C@@H](c2ccccc2)O1`, 122 to 124 °C. `CCCCC(CC)COC(=O)c1cc(OC)c(O)c(OC)c1` (centres undefined): the melting point is 35 to 36 °C.

Compound `Cc1nc(N)c2nc(C)n(CCOCCN)c2c1C` came in with a melting point of 130 to 133 °C. In the case of `CC(=O)NCc1cccc(Nc2nccc(-c3sc(NCc4ccccc4)nc3C)n2)c1` it was 181 to 183 °C; in that of `O=C1c2cccc3c([N+](=O)[O-])c(O)cc(c23)C(=O)N1O`, 267 to 270 °C; in that of `Cc1cn2cccc(N[C@@H]3c4ccccc4C[C@H]3O)c2n1` (relative stereo), 188 to 190 °C. In the case of `CC(=O)C1CNCc2c1[nH]c1cnc3cc(Cl)ccc3c21` (centres undefined) it was 235 to 237 °C; in that of `CC1CC(=O)NN=C1c1ccc2[nH]c(-c3ccncc3)cc2c1` (centres undefined), 301 to 303 °C; in that of `CC(=O)COc1c([N+](=O)[O-])ccc(F)c1C(C)=O`, 64 to 65 °C. In the case of `CC(C)(C)C(COC(N)=O)(NC(=O)C(=O)c1c[nH]c2ccc(Br)cc12)c1c[nH]c2ccc(Br)cc12` (centres undefined) it was 207 °C; in that of `CCOC1=Nc2ccc(Cl)cc2C(c2ccccc2Cl)=NC1OC` (centres undefined), 110 to 113 °C. The compound `CC(C)(C)CNc1nc(Cl)ncc1CN=[N+]=[N-]` showed a melting point of 133 to 136 °C.

With `CC(C)(C)C(O)C(Oc1ccc(Cl)cc1)n1ccnc1` (centres undefined), the melting point was in the range of 145 to 147 °C. Under `CCCc1cccc(N2CC(=O)N(C)C(=O)N2)c1` stands 112 to 115 °C; under `COC(=O)c1ccccc1N=CNc1nnn[nH]1`, 199 to 200 °C; under `O=C(c1cc(O)cc2cc(-c3ccc(O)cc3)oc12)C(F)(F)F`, 215 to 216 °C. In the case of `Cc1ccccc1SN(C(=O)NC(=O)c1ccccc1Cl)c1ccc(OC(F)(F)F)cc1` it was 79 to 80 °C; in that of `O=c1ccn(CC(O)CO)c(C(OC2CCCCO2)c2ccccc2)c1OCc1ccccc1` (centres undefined), 190 to 206 °C; in that of `CN1CCC(OC2c3ccccc3CCn3c2nc(-c2ccccc2)c3C=O)CC1` (centres undefined), 70 °C. `COc1nccc2c(=O)n(C)c(-c3ccc(OC4CCN(C5CCC5)CC4)cc3)nc12` yielded a melting point of 178 to 180 °C. In the case of `O=C(N1CCOCC1)N1Cc2c(-c3nc4ccccc4o3)ncn2-c2ccccc21` it was 288 to 290 °C; in that of `CN(C(=O)CSc1nccc(-c2ccccn2)n1)c1ccc(Cl)cc1`, 142 °C; in that of `O=C1NC(=S)SC1=C(c1ccccc1)c1ccccc1`, 192 to 194 °C.

`O=C(O)[C@H](Cc1ccc(C(F)(F)F)cc1)[C@@H](O)c1ccccc1F` (racemic) gave a melting point of 122 to 123 °C.

Consider `Nc1c(-c2ccc(Cl)cc2)nc2ccc(Cl)cc2c1C(=O)O`, for which the melting point fell in the range of 240 to 241 °C.

`NS(=O)(=O)c1ccc(S(=O)(=O)NCc2cccs2)s1` had a melting point of 146 to 148 °C. In the case of `O=C(c1ccccc1)c1c(O)c2cc(Cl)cc(Cl)c2[nH]c1=O` it was 258 to 259 °C. In the case of `CCCCCCOc1ccc2[nH]c(C)c(CC(=O)O)c2c1` it was 65 to 67 °C.

Regarding `Cc1sc(-c2ccccc2)nc1COc1ccc(CCC[C@@H]2OC(=O)NC2=O)cc1`, the melting point was 113 to 114 °C. Under `OCCOCC(O)c1ccc2ccccc2c1` (centres undefined) stands 105 to 106 °C. In the case of `CC12CCC3C(CCC4CC(O[Si](c5ccccc5)(c5ccccc5)C(C)(C)C)CCC43C)C1CCC2C=C(Br)Br` (centres undefined) it was 69 to 71 °C; in that of `CCCCCCCCNC(=O)c1cc(C(C)(C)C)c(O)c(C(C)(C)C)c1`, 133 to 135 °C. The compound `Cc1cc(C)n(C(=O)C(Cc2ccccc2)NS(=O)(=O)c2ccc(Cl)cc2)n1` (centres undefined) registered a melting point of 137 to 138 °C.

`COC(=O)CCCC(=O)c1ccc(OCCCC/C=C/c2ccc(OC)cc2)c(O)c1` registered a melting point of 78 to 80 °C. In the case of `O=C(O)c1cccc(-c2nc(-c3cc(Cl)sc3Cl)cs2)c1` it was 241 to 242 °C; in that of `CNC(=O)c1cccc(NC(=O)CCc2ccc(OC)cc2)c1`, 151 to 152 °C; in that of `Sc1nccn1Cc1ccsc1`, 130 to 131 °C. Under `Cc1cccc(NC(=O)c2cc(Cl)cc(C)n2)n1` stands 130 °C. In the case of `C#CCN(Cc1cc2c(=O)n(C)c(CO)nc2cc1Cl)c1ccc(C(=O)OC(C)(C)C)cc1` it was 109 to 111 °C; in that of `COC(=O)c1[nH]c2c(C)ccc(C)c2c1-c1nc2ccccc2s1`, 193 to 194 °C. As for `COc1ccc(S(=O)(=O)N2CCCC2c2ccc(F)cc2)cc1` (racemic), the melting point turned out to be 134 °C. Regarding `Clc1ccccc1C=C(Cn1cncn1)C1(Cl)CC1`, the melting point lay within 82 to 85 °C. In the case of `O=C1CCC(N2Cc3c(OCc4ccc(CN5CCC(F)(F)CC5)cc4)cccc3C2=O)C(=O)N1` (centres undefined) it was 193 to 195 °C; in that of `CCOC(=O)CS(=O)(=O)c1ccc(C=C(C)c2ccc3c(c2)C(C)(C)CCC3(C)C)cc1`, 117 to 118 °C. In the case of `CC1(C)NC(=O)N(CC(CS(=O)(=O)c2ccc(-c3ccc(C(F)(F)F)cc3)cc2)N(O)C=O)C1=O` (centres undefined) it was 180 to 182 °C.
